US8834855B2, “Sunscreen compositions comprising carotenoids” (Promar AS, priority 2005, dated 2014)

What was measured:
[1] = Effects of temperature on extraction for 200 minutes, water:ethanol:heptane 1:1:1, pH 11; format: physicochemical; conditions: for amount in phase after extraction: 1:1:1, pH 11
[2] = Phase distribution of carotenoids in water-ethanol/heptane extraction at different water levels; format: physicochemical; conditions: room temperature, no pH adjustment
Procedure: (§1) Extraction is performed in a nitrogen atmosphere in equipment covered with aluminium foil. • 1. The pH of a water suspension of the microalgae P. tricornutum (14 g dry weight per liter of water) was adjusted to 8.3 and ethanol was added to a final ratio of water:ethanol=0.3:1.0. • 2. The water-ethanol solution was extracted by mixing with heptane (water-ethanol solution:heptane=1.3:1.0) for 1 hour at 20° C. • 3. The solution was separated into three phases by centrifugation (10 minutes at 3222×g): An upper heptane phase enriched in diadinoxanthin and fucoxanthin, a lower ethanol-water phase enriched in chlorophylls and degradation products of chlorophylls, and a third mid-phase with precipitated materials. The ratio of the concentration of diadinoxanthin to fucoxanthin in the water-ethanol phase was approximately 1:6. • 4. Water was added to the water-ethanol phase until a water:ethanol ratio of 0.7:1.0 was reached. This solution was extracted by a similar amount of heptane and the phases separated by centrifugation (as in step 3). Diadinoxanthin was enriched in the heptane phase (diadinoxanthin:fucoxanthin=1:1), and fucoxanthin and fucoxanthin-derivatives in the ethanol-water phase. • 5. The heptane phase was stored overnight at −20° C. to separate fucoxanthin which was separated by centrifugation as described above. (Alternatively, the precipitated material may be removed with a pipette.) • 6. The heptane phase was used for further purification of diadinoxanthin by HPLC as described hereinbefore to yield […] of the diadinoxanthin found in the starting material. Optimization
Various parameters in the above described basic method were varied to establish the effect of water concentration, pH and temperature on the isolation method.
The method was performed at room temperature without pH adjustment.

[3] = Irradiation absorption in an in vitro skin model (Vitro-skin, integrating sphere transmission); conditions: Miglyol solvent, compared to a conventional SPF 60 sun lotion
Procedure: A commercial sunscreen SPF60 was used for comparison. Vitro−skin+miglyol was used as the control. Curve 1: Vitro−skin+Miglyol, 2: SPF60, 3:fucoxanthin at 2.76 mg/ml, 4:fucoxanthin at 0.55 mg/ml, 5:fucoxanthin at 0.25 mg/ml, 6:diadinoxanthin at 0.64 mg/ml, 7:diadinoxanthin at 0.13 mg/ml; and
The concentrations are given as the sum of the given compounds and their degradation products (cis-fucoxanthin and diadinochrome). Solid lines with squares—diadinoxanthin. Solid line with diamonds—fucoxanthin. Dashed lines illustrate a projected linear relationship.
The in vitro method of Springsteen was used (Springsteen et al., 1999, Analytica Chimica Acta, 380, p155-164). Vitro-skin was used as the skin simulator and Miglyol (Miglyol 812F Neutraloel CHG. 040906) was used as the solvent. The tests were performed with a Varian Cary 300 Conc UV-Visible Spectrophotometer (with an integrating sphere). Fucoxanthin and diadinoxanthin (isolated as described in Example 2) were tested at the concentrations indicated on FIG. 3.

[4] = Recovery of initial amount after extraction at different temperature and pH (stability); format: physicochemical
Text: (§2) Values indicated are for the amount of each compound in the indicated phase. The value in brackets indicates the % distribution between the two phases.

[5] = Effects of temperature and pH on separation of diadinoxanthin from fucoxanthin (water:ethanol phase extracted with heptane); format: physicochemical
Procedure: as §1, §2

[6] = water:EtOH:heptane 0:1:1, heptane phase
[7] = water:EtOH:heptane 0:1:1, water-EtOH phase
[8] = water:EtOH:heptane 0.1:1:1, heptane phase
[9] = water:EtOH:heptane 0.1:1:1, water-EtOH phase
[10] = water:EtOH:heptane 0.2:1:1, heptane phase
[11] = water:EtOH:heptane 0.2:1:1, water-EtOH phase
[12] = water:EtOH:heptane 0.4:1:1, heptane phase
[13] = water:EtOH:heptane 0.4:1:1, water-EtOH phase
[14] = NaOH-buffer, pH 12.2, 50° C., Heptane phase
[15] = NaOH-buffer, pH 12.2, 50° C., Water-EtOH phase
[16] = Phosphate, pH 11, 20° C., Heptane phase
[17] = Phosphate, pH 11, 20° C., Water-EtOH phase
[18] = Phosphate, pH 11, 50° C., Heptane phase
[19] = Phosphate, pH 11, 50° C., Water-EtOH phase

| SMILES | amount in phase after extraction ([1]; 20 °C, Heptane phase) | amount in phase after extraction ([1]; 20 °C, Water-EtOH phase) | amount in phase after extraction ([1]; 35 °C, Heptane phase) | amount in phase after extraction ([1]; 35 °C, Water-EtOH phase) | amount in phase after extraction ([1]; 50 °C, Heptane phase) | amount in phase after extraction ([1]; 50 °C, Water-EtOH phase) | phase distribution [2, 6] [%] | phase distribution [2, 7] [%] | phase distribution [2, 8] [%] | phase distribution [2, 9] [%] | phase distribution [2, 10] [%] | phase distribution [2, 11] [%] | phase distribution [2, 12] [%] | phase distribution [2, 13] [%] | ability to absorb irradiation [3] | Total present in both phases ([4]; NaOH-buffer, pH 12.2, 50° C.) | Total present in both phases ([4]; Phosphate, pH 11, 20° C.) | Total present in both phases ([4]; Phosphate, pH 11, 50° C.) | % distribution between the two phases [5, 14] | amount of compound in phase [5, 14] | further results |
| --- | --- | --- | --- | --- | --- | --- | --- | --- | --- | --- | --- | --- | --- | --- | --- | --- | --- | --- | --- | --- | --- |
| C=Cc1c(C)c2cc3nc(c4c5[n-]c(cc6nc(cc1[n-]2)C(C)=C6CC)c(C)c5C(=O)[C@@H]4C(=O)OC)[C@@H](CCC(=O)OC/C=C(\C)CCC[C@H](C)CCC[C@H](C)CCCC(C)C)[C@@H]3C.[Mg+2] [Chl a, chlorophyll a] | 3290 | 0 | 3505 | 0 | 4010 | 0 | 45 | 55 | 100 | 0 | 93 | 7 | 100 | 0 |  |  |  |  |  |  |  |
| CC1=C(C#C/C(C)=C/C=C/C(C)=C/C=C/C=C(C)/C=C/C=C(C)/C=C/[C@@]23O[C@]2(C)C[C@@H](O)CC3(C)C)C(C)(C)C[C@H](O)C1 [diadinoxanthin] | 1155 | 170 | 1260 | 180 | 1310 | 190 | 12 | 88 | 93 | 7 | 6 | 94 | 22 | 78 | ability to absorb irradiation, particularly in the blue light range of the spectrum, but also in the upper UVA area | 1440 | 1500 | 1470 | 100% | 1440 | stability under the temperature and pH conditions used ([4]; pH 11): stable under the conditions used; % distribution between the two phases [5, 15]: 0 (0%); amount of compound in phase [5, 15]: 0 (0%); % distribution between the two phases [5, 16]: 100%; amount of compound in phase [5, 16]: 1500; % distribution between the two phases [5, 17]: 0 (0%); amount of compound in phase [5, 17]: 0 (0%); % distribution between the two phases [5, 18]: 100%; amount of compound in phase [5, 18]: 1470; % distribution between the two phases [5, 19]: 0 (0%); amount of compound in phase [5, 19]: 0 (0%) |
| CC(=O)O[C@H]1CC(C)(C)C(=C=C/C(C)=C/C=C/C(C)=C/C=C/C=C(C)/C=C/C=C(\C)C(=O)C[C@@]23O[C@]2(C)C[C@@H](O)CC3(C)C)[C@](C)(O)C1 [fucoxanthin] | 1065 | 380 | 610 | 210 | 95 | 0 | 7 | 93 | 49 | 51 | 2 | 98 | 3 | 97 | ability to absorb irradiation, particularly in the blue light range of the spectrum, but also in the upper UVA area | 0 | 5120 | 2880 | 0 (0%) | 0 (0%) | stability at various temperatures ([1]; 20, 35, 50 °C, pH 11): more sensitive to higher temperatures; stability under the temperature and pH conditions used ([4]; pH 11 to 12.2, 20 to 50° C.): more sensitive to extreme temperatures and pH; % distribution between the two phases [5, 15]: 0 (0%); amount of compound in phase [5, 15]: 0 (0%); % distribution between the two phases [5, 16]: 95%; amount of compound in phase [5, 16]: 4860; % distribution between the two phases [5, 17]: 5%; amount of compound in phase [5, 17]: 260; % distribution between the two phases [5, 18]: 95%; amount of compound in phase [5, 18]: 2745; % distribution between the two phases [5, 19]: 5%; amount of compound in phase [5, 19]: 135 |
